Measured values reported in ChEMBL document CHEMBL4825766, “Structure Activity Relationships for a Series of Eticlopride-Based Dopamine D2/D3 Receptor Bitopic Ligands” (J Med Chem, 2021).

Experiments:
[1] = target: D(2) dopamine receptor (Homo sapiens, UniProt P14416)
[2] = target: D(3) dopamine receptor (Homo sapiens, UniProt P35462)
D(3) dopamine receptor, sequence (P35462 whole entry): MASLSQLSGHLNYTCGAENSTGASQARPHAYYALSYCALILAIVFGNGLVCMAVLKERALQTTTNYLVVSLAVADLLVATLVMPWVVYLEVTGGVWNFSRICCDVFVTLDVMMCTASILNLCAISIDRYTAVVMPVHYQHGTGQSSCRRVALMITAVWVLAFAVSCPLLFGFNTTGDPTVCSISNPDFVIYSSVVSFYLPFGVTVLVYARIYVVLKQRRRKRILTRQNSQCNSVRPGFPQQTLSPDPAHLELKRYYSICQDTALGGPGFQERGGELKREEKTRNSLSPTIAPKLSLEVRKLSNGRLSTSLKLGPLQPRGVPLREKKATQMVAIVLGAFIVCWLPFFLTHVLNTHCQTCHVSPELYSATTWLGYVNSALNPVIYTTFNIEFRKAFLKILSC

D(2) dopamine receptor, sequence (P14416 whole entry): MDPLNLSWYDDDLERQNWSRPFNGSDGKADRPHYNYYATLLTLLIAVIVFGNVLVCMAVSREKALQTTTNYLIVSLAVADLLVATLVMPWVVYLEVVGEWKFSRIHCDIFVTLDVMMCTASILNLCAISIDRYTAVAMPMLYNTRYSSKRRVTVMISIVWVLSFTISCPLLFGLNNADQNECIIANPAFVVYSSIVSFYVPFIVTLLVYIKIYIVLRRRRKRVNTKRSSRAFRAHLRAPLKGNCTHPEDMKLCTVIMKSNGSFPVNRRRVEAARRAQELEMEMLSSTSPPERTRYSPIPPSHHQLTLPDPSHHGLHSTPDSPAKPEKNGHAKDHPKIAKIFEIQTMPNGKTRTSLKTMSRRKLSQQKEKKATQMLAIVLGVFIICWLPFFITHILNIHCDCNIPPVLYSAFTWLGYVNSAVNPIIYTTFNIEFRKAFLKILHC

Compound: CCc1cc(Cl)c(OC)c(C(=O)NC[C@@H]2C[C@@H](OCCCCO)CN2)c1O
- Ki [1]: 1.9 nM
- Ki [2]: 0.815 nM

Compound: CCc1cc(Cl)c(OC)c(C(=O)NC[C@@H]2CCCN2CCCCOc2ccc3c(c2)NC(=O)CC3)c1O
- Ki [1]: 25.3 nM
- Ki [2]: 6.97 nM

Compound: CCc1cc(Cl)c(OC)c(C(=O)NC[C@@H]2C[C@@H](OCCCCNC(=O)c3cc4ccccc4o3)CN2)c1O
- Ki [1]: 2.29 nM
- Ki [2]: 0.493 nM

Compound: CCc1cc(Cl)c(OC)c(C(=O)NC[C@@H]2CCCN2CCCCNC(=O)c2cc3ccccc3o2)c1O
- Ki [1]: 27.6 nM
- Ki [2]: 15.4 nM

Compound: CCc1cc(Cl)c(OC)c(C(=O)NC[C@@H]2C[C@@H](OCCCCOCc3ccccc3)CN2)c1O
- Ki [1]: 7.24 nM
- Ki [2]: 1.01 nM

Compound: CCc1cc(Cl)c(OC)c(C(=O)NC[C@@H]2CCCN2Cc2ccccc2)c1O
- Ki [1]: 205 nM
- Ki [2]: 28.7 nM

Compound: CCCN1CCC(CNC(=O)c2c(O)c(CC)cc(Cl)c2OC)C1 (centres undefined)
- Ki [1]: 66.4 nM
- Ki [2]: 14.3 nM

Compound: CCc1cc(Cl)c(OC)c(C(=O)NC[C@@H]2C[C@@H](OCCCCNC(=O)c3cc4ccccc4[nH]3)CN2)c1O
- Ki [1]: 2.54 nM
- Ki [2]: 0.797 nM

Compound: CCc1cc(Cl)c(OC)c(C(=O)NC[C@@H]2CCCN2)c1O
- Ki [1]: 2.26 nM
- Ki [2]: 0.431 nM

Compound: CCCN1C[C@H](OCCCCOc2ccc3c(c2)NC(=O)CC3)C[C@H]1CNC(=O)c1c(O)c(CC)cc(Cl)c1OC
- Ki [1]: 2.57 nM
- Ki [2]: 0.444 nM

Compound: CCc1cc(Cl)c(OC)c(C(=O)NC[C@@H]2CCCN2CCCc2ccccc2)c1O
- Ki [1]: 162 nM
- Ki [2]: 20.4 nM

Compound: CCCN1CCC[C@H]1CNC(=O)c1c(O)c(CC)cc(Cl)c1OC
- Ki [1]: 0.688 nM
- Ki [2]: 0.281 nM

Compound: CCc1cc(Cl)c(OC)c(C(=O)NC[C@@H]2CCCN2Cc2ccccc2)c1OCc1ccccc1
- Ki [1]: 2590 nM
- Ki [2]: 426 nM

Compound: CCc1cc(Cl)c(OC)c(C(=O)NC[C@@H]2C[C@@H](OCCCc3ccccc3)CN2)c1O
- Ki [1]: 7.42 nM
- Ki [2]: 2.63 nM

Compound: CCc1cc(Cl)c(OC)c(C(=O)NCC2CCN(CC)C2)c1O (centres undefined)
- Ki [1]: 38.2 nM
- Ki [2]: 19.2 nM

Compound: CCc1cc(Cl)c(OC)c(C(=O)NC[C@@H]2CCCN2CCCCNC(=O)c2cc3ccccc3[nH]2)c1O
- Ki [1]: 173 nM
- Ki [2]: 61.1 nM

Compound: CCc1cc(Cl)c(OC)c(C(=O)NC[C@@H]2C[C@@H](OCCCCOc3ccc4c(c3)NC(=O)CC4)CN2)c1O
- Ki [1]: 1.77 nM
- Ki [2]: 0.436 nM

Compound: CCc1cc(Cl)c(OC)c(C(=O)NCC2CCN(C)C2)c1O (centres undefined)
- Ki [1]: 217 nM
- Ki [2]: 100 nM

Compound: CCc1cc(Cl)c(OC)c(C(=O)NC[C@@H]2CCCN2CCc2c(C)nc3n(c2=O)CCCC3)c1O
- Ki [1]: 74.4 nM
- Ki [2]: 50.3 nM

Compound: CCc1cc(Cl)c(OC)c(C(=O)NC[C@@H]2CCCN2CC)c1O [ETICLOPRIDE]
- Ki [1]: 0.117 nM
